Measured values as given in paper PMC2946430 (Biosensors & bioelectronics, 2010).
pIC50: −log10 of the molar value. Values belong to the compound of their own block, whether it stands above or below them.

Columns and labels:
[1] = molecular target: EGFR kinase activity in H1650-ER1, H1650-ER2, H1650-ER4 cell lysates (Homo sapiens, UniProt P00533, DEL746-750)
[2] = test system: phosphorylation of MAPK and Akt in H1650-ER1, H1650-ER2 and H1650-ER4 cells; assay: Western blot of MAPK and Akt phosphorylation, resistant clones; type: cell-based, human; conditions: for suppression of p-AKT and p-MAPK levels: resistant H1650-ER1 cells compared to parent H1650 cells
H1650 cells [3] = assay: Clonogenic assay, parental H1650; type: cell-based, human; conditions: parental H1650, continuous exposure 10 μM and 50 μM, 15 days
[4] = test system: phosphorylation of MAPK and Akt in H1650 cells; assay: Western blot of MAPK and Akt phosphorylation, parental H1650; type: cell-based, human
H1650 cells [5] = assay: cells; conditions: Homo sapiens, NCI-H1650, 48 h, read-out: IC50, cell proliferation/viability
[6] = test system: erlotinib-resistant H1650 clones; assay: cells; conditions: Homo sapiens, NCI-H1650, 48 h, read-out: IC50, cell proliferation/viability
[7] = test system: EGFR kinase activity in H23 cell lysate (wild type EGFR); assay: Hydrogel-based peptide array kinase assay, H23 cell lysate; type: biochemical, human; conditions: 0-50 μM, compared with H1650

pIC50 [1]: < 5.00
Compound: C[C@@H](Nc1ncnc2[nH]c(-c3ccc(O)cc3)cc12)c1ccccc1 [PKI-166]

Compound: CC#CC(=O)Nc1ccc2ncnc(Nc3cccc(Br)c3)c2c1 [CL-387,785]
suppression of p-AKT and p-MAPK levels [2]: persistent activity

Compound: C#Cc1cccc(Nc2ncnc3cc(OCCOC)c(OCCOC)cc23)c1 [erlotinib]
colony formation (H1650 cells [3]): very few colonies | MAPK phosphorylation ([4]; parental H1650, 0, 1 and 10 μM for 5 hr, Western blot): attenuation in MAPK phosphorylation | Akt phosphorylation ([4]; parental H1650, Western blot): did not affect | pIC50 (H1650 cells [5]): ~5.62 | pIC50 [6]: < 4.70 | effect on substrate phosphorylation by H23 lysate [7]: much less effective | MAPK phosphorylation ([2]; H1650-ER1, H1650-ER2, H1650-ER4, 0, 1 and 10 μM for 5 hr): maintained | suppression of p-AKT and p-MAPK levels [2]: reduced efficacy | Akt phosphorylation ([2]; resistant clones): did not affect
